What all share (experiment): relative viability (nuclei count vs DMSO), 5 days (fraction); higher = more cells survive
Compound in the experiment “Masitinib + Phenformin”: Cc1ccc(NC(=O)c2ccc(CN3CCN(C)CC3)cc2)cc1Nc1nc(-c2cccnc2)cs1 [Masitinib] + N=C(N)NC(=N)NCCc1ccccc1 [Phenformin] (partner 250 µM)
The essentials:
(§1)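 Lung cancer cell lines in 1536-well plates got either a single drug or a fixed anchor-drug dose together with five library-drug doses (not always all listed) in √10 steps, by pin tool, on the day after seeding. Nuclei were counted after 5 days, and relative viability is the treated-to-vehicle ratio of nuclei counts. Values are medians of duplicate plates.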

Compound in experiment [1]: CC1=CC(=CC=C1)NC2=NC(=CS2)C3=CC=NC=C3 + CCNC(=O)c1noc(-c2cc(C(C)C)c(O)cc2O)c1-c1ccc(CN2CCOCC2)cc1 [Luminespib] (partner 0.01 µM)
The essentials:
as §1

Compound in the experiment “Masitinib + Olaparib”: Cc1ccc(NC(=O)c2ccc(CN3CCN(C)CC3)cc2)cc1Nc1nc(-c2cccnc2)cs1 [Masitinib] + O=C(c1cc(Cc2n[nH]c(=O)c3ccccc23)ccc1F)N1CCN(C(=O)C2CC2)CC1 [Olaparib] (partner 8 µM)
The essentials: as §1

Compound in the experiment “Masitinib + Palbociclib”: Cc1ccc(NC(=O)c2ccc(CN3CCN(C)CC3)cc2)cc1Nc1nc(-c2cccnc2)cs1 [Masitinib] + CC(=O)c1c(C)c2cnc(Nc3ccc(N4CCNCC4)cn3)nc2n(C2CCCC2)c1=O [Palbociclib] (partner 0.5 µM)
Summed up:
as §1

For UMC-11, the relative viability with Masitinib + Phenformin (first compound 0.03162 µM) was 0.331; in the experiment with Masitinib + Phenformin (first compound 0.1 µM) it was 0.363; with Masitinib + Phenformin (first compound 0.3162 µM), 0.377; in the experiment with Masitinib + Phenformin (first compound 1 µM), 0.338; in experiment [1] (first compound 0.08 µM) it was 1.01; in experiment [1] (first compound 0.253 µM), 1.05. Also, the relative viability came out at 1.06 in experiment [1] (first compound 0.8 µM); 1.07 in experiment [1] (first compound 2.53 µM); 1.09 in experiment [1] (first compound 8 µM); 0.354 with Masitinib + Olaparib (first compound 0.01 µM); 0.371 in the experiment with Masitinib + Olaparib (first compound 0.03162 µM); 0.372 in the experiment with Masitinib + Olaparib (first compound 0.1 µM). The relative viability stood at 0.376 in the experiment with Masitinib + Olaparib (first compound 0.3162 µM); 0.398 with Masitinib + Olaparib (first compound 1 µM); 0.323 with Masitinib + Palbociclib (first compound 0.01 µM); 0.384 with Masitinib + Palbociclib (first compound 0.03162 µM); 0.319 with Masitinib + Palbociclib (first compound 0.1 µM); 0.351 with Masitinib + Palbociclib (first compound 0.3162 µM). In addition, in the experiment with Masitinib + Palbociclib (first compound 1 µM), the relative viability was found to be 0.304.
